Key:
[1] = system: MCF-7; experiment: MTT antiproliferation assay, MCF-7; format: cell-based; conditions: Homo sapiens, MCF7, 72 h exposure, read-out: IC50 ± SD, MCF-7
Experimental: (§1) To test the antiproliferative activities of the synthesized compounds (see supplementary Scheme S1 and S2), the target compounds were evaluated in vitro antiproliferation assays against three human cancer cell lines (MCF-7, HeLa and A549) and one human normal lung cell line.
(§2) The in vitro anticancer activities of the prepared compounds against MCF-7, HeLa and A549 cell lines were evaluated as described in the literature[23] with some modifications. Target tumor cells were grown to log phase in DMEM medium supplemented with 10% fetal bovine serum. After reaching a dilution of 1 × 10^5 cells mL^−1 with the medium, 100 μL of the obtained cell suspension was added to each well of 96-well culture plates. Subsequently, incubation was performed at 37 °C in 5% CO2 atmosphere for 48 h before the cytotoxicity assessment. Tested samples at preset concentrations were added to 6 wells with Erlotinib being employed as a positive reference. After 72 h exposure period, 25 μL of PBS containing 2.5 mg mL^−1 of MTT was added to each well. After 4 h, the medium was replaced by 150 μL DMSO to dissolve the purple formazan crystals produced. The absorbance at 570 nm of each well was measured with an ELISA plate reader. The data represented the mean of three independent experiments in triplicate and were expressed as means ± SD. The IC50 value was defined as the concentration at which 50% of the cells could survive.

[2] = system: HeLa; experiment: MTT antiproliferation assay, HeLa; format: cell-based; conditions: Homo sapiens, 72 h exposure, read-out: IC50 ± SD, HeLa
Experimental: as §1, §2

[3] = system: A549; experiment: MTT antiproliferation assay, A549; format: cell-based; conditions: Homo sapiens, 72 h exposure, read-out: IC50 ± SD, A549
Experimental: as §1, §2

[4] = system: Lung cells; experiment: MTT assay, human normal lung cell line; format: cell-based; conditions: read-out: IC50 ± SD, Lung cells
Experimental: as §1, §2

[5] = target: T1, EGFR (Homo sapiens, UniProt P00533); experiment: Kinase selectivity assay (kit), EGFR; format: biochemical; conditions: read-out: Inhibition of EGFR IC50
T1 construct: purchased Bio-Swamp
Experimental: (§3) The EGFR, VEGFR2, bFGF and PDGFR Kinase Assay Kit were purchased from Bio-Swamp. The experiments were performed according to the manufacturer’s instructions.

[6] = target: T2, VEGFR2 (Homo sapiens, UniProt P35968); experiment: Kinase selectivity assay (kit), VEGFR2; format: biochemical; conditions: read-out: Inhibition of VEGFR2 IC50
T2 construct: purchased Bio-Swamp
Experimental: (§4) To validate whether the above anti-proliferative effect was produced by interaction of EGFR protein and the synthesized compounds, the synthesized compounds were evaluated for their abilities to inhibit the activity of four protein kinases relevant to cancer: EGFR, VEGFR2, bFGF, PDGFR. […] Additionally, the activity data inferred that the IC50 values of these compounds shared a similar tendency with their relevant IC50 values of anti-proliferative assay. […] Therefore, we could conclude that the synthesized inhibitors can inhibit the function of EGFR and the anti-proliferative effect was produced partly by interaction of EGFR protein and the compounds.
as §3

[7] = target: bFGF; experiment: Kinase selectivity assay (kit), bFGF; format: biochemical; conditions: read-out: Inhibition of bFGF IC50
Experimental: as §4, §3

[8] = target: PDGFR; experiment: Kinase selectivity assay (kit), PDGFR; format: biochemical; conditions: read-out: Inhibition of PDGFR IC50
Experimental: as §4, §3

[9] = system: Erythrocytes; experiment: Hemolysis test; format: cell-based; conditions: human erythrocytes, 3 h incubation
Experimental: Hemolytic activity was assayed using fresh capillary human blood. Erythrocytes were collected by centrifuging the blood three times in chilled phosphate buffered saline (PBS at 4 °C) at 1000 × g for 10 min. The final pellet was resuspended in PBS to give a 2% w/v solution. Using a microtitre plate, 100 μL of the erythrocyte solution was added to dextran, PLL, stearyl-PLL or stearyl-PLL+LDL (1–1000/μg/mL) in a volume of […]. Samples were then incubated for 3 h and the microtitre plate was centrifuged then at 1000 × g for 10 min and the supernatants (100 μL) transferred into a new microtitre plate. Hemoglobin release was determined spectrophotometrically using a microtitre plate reader (absorbance at 550 nm). Results were expressed as the amount of released hemoglobin induced by the compounds as a percentage of the total. Hemolysis test was tested according to the guide of biological evaluation of medical device (SFDA, China).

[10] = in vitro; format: cell-based; conditions: mouse
Experimental: The cytotoxic activity in vitro was measured against mouse fibroblast NIH-3T3 cells using the MTT assay. Cells were cultured in a 96-well plate at a density of 5 × 10^5 cells and different concentrations of compounds were respectively added to each well. The incubation was permitted at 37 °C, 5% CO2 atmosphere for 24 h before the cytotoxicity assessments. 20 μL MTT reagent (4 mg/mL) was added per well 4 h before the end of the incubation. Four hours later, the plate was centrifuged at 1200 rcf for 5 min and the supernatants were removed, each well was added with 200 μL DMSO. The absorbance was measured at a wavelength of 490 nm (OD 490 nm) on an ELISA microplate reader. Three replicate wells were used for each concentration and each assay was measured three times, after which the average of IC50 was calculated.

[11] = Acute oral toxicity, bodyweights; format: in vivo; conditions: mice
Experimental: Before the acute toxicity experiment, mice were stopped being served food but water was kept for 3 h. The test substances were dissolved in maize germ oil[24]. The preliminary experiment was performed as follows: Four dose levels, 100, 500, 2000, and 5000 mg/kg body weight and three mice for each level were used. We observed the death and evident toxicity in 7 days to determine the general concentration range. Then the administration doses were graded with geometric progression for ease of the calculation of LD50. Mice were randomly divided into groups (10 mice/group). […] The control groups received maize germ oil only. After the administration, food was withheld for 2 h.

[12] = system: A549 cells; experiment: Tumor volume in nude mice inoculated with A549 cells; format: in vivo; conditions: for Test/Control (tumor volume): 40 mg/kg/2 days
Experimental: To further evaluate the antitumor effect of compound 3p in vivo, we performed an animal study. Mice were inoculated subcutaneously with A549 cells (5.0 × 10^6) on their shoulders. […]. […] […].
Male BALB/c nude mice, 35–40 days old and weighing 18–22 g, were supplied by Shanghai Laboratory Animal Limited Company. The mice were raised in air-conditioned rooms under controlled lighting (12 h lighting/day) and were fed with standard laboratory food and water ad libitum. Before injection into the mice, the lung cancer cells (A549) were harvested by trypsinization and washed three times with cold serum-free medium and then injected in a total volume of 0.1 mL using a 1-mL latex-free syringe (BD) within 30 min of harvest. Mice were inoculated subcutaneously with A549 cells (5.0 × 10^6) on their shoulders. When the tumor had increased to 100 mm^3 , the mice were equally randomized into 4 groups (with 6 mice/group): saline tumor control group; compound 3p 20 mg/kg/2 days group; compound 3p 40 mg/kg/2 days group; […]. The control group received 0.9% normal saline. Tumor size was measured once every 2 days in two per-pendicular dimensions with Vernier calipers and converted to tumor volume (TV) using the formula: (ab^2)/2, where a and b refer to the longer and shorter dimensions, respectively. The body weight of the animals was measured twice a week at the same time as the tumor dimension measurement and the mortality was monitored daily. After the treatments, all mice were killed and weighed simultaneously, and then tumor was segregated and weighed.

[13] = system: MCF-7, HeLa and A549 cell lines; experiment: Anticancer activities discussed in text (cell line not specified); format: cell-based, human; conditions: comparison within series and with positive control
Experimental: According to the data presented in Table 1, it could be concluded that the activity of the tested compounds may be correlated to the variation and modifications of structure.
as §2

T1 sequence (P00533 25-1210): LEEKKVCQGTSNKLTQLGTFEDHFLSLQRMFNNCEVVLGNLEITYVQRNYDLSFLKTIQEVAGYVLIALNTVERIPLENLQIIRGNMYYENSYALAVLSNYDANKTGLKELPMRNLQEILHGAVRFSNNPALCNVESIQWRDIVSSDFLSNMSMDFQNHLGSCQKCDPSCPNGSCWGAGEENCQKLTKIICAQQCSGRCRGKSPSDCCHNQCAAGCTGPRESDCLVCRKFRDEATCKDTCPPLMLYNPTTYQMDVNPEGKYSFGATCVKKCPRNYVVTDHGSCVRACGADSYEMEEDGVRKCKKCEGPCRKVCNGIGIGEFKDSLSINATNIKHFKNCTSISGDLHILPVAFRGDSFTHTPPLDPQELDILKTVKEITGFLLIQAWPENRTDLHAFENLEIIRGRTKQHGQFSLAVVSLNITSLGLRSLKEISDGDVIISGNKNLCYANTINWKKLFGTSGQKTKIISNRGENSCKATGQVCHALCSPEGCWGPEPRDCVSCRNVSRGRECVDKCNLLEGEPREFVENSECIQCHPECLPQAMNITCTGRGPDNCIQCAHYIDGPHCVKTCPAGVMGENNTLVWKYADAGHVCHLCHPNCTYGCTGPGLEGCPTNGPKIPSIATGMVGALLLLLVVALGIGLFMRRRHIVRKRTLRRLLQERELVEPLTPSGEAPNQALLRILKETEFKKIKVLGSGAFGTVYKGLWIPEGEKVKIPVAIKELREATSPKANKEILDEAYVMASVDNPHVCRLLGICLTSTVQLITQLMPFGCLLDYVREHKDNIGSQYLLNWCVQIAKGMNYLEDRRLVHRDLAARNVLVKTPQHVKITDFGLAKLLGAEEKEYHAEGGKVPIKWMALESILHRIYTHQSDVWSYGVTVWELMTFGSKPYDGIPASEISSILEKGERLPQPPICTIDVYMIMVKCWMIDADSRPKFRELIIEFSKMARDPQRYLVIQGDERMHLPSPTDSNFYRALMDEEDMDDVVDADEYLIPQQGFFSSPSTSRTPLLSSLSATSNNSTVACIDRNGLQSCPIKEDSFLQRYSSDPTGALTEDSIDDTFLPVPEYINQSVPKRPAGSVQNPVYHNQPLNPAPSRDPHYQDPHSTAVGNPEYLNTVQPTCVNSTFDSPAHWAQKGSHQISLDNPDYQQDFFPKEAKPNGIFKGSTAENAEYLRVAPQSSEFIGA
T2 sequence (P35968 20-1356, species assumed): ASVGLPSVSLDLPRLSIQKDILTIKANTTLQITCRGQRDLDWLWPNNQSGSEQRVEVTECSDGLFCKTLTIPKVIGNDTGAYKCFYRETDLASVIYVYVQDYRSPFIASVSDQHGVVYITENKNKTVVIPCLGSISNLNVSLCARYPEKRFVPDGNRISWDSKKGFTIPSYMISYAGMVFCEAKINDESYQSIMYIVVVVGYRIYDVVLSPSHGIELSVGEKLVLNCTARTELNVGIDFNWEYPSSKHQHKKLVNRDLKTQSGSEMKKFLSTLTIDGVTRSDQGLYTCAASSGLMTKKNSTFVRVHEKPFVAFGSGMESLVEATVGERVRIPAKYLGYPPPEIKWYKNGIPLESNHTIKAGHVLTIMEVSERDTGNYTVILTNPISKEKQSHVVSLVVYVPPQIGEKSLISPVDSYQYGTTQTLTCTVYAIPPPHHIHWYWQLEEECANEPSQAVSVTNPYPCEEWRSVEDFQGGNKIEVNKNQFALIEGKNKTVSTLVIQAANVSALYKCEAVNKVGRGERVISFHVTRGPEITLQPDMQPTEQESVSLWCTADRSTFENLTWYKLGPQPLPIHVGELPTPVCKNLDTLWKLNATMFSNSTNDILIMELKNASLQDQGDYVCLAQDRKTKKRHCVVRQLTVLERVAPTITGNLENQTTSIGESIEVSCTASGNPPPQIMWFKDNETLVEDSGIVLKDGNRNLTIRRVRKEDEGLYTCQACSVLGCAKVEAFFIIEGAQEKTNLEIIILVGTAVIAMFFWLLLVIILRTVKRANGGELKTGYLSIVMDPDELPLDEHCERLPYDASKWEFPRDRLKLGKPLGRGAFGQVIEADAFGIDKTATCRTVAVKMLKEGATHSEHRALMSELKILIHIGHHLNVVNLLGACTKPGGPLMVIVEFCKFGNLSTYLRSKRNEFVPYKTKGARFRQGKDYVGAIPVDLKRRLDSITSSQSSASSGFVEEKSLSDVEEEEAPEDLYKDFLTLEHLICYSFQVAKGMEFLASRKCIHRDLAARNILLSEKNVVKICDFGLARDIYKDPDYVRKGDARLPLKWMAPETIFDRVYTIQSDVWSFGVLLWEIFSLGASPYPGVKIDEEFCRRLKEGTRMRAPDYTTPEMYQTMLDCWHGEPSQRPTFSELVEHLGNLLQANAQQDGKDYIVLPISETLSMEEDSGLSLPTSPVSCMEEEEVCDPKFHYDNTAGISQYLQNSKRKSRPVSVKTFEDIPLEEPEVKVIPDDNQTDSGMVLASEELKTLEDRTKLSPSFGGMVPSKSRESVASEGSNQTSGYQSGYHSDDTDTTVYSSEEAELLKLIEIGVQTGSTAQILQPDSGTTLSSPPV

## COc1cc(OC)nc(NC(=O)CN2CCN(c3ccc(Cl)c(Cl)c3)CC2)n1 [3p, 2-(4-(3,4-dichlorophenyl)piperazin-1-yl)-N-(4,6-dimethoxypyrimidin-2-yl)acetamide]
[1]
  IC50: 0.22 ± 0.001 µM
[2]
  IC50: 0.08 ± 0.0002 µM
[3]
  IC50: 0.05 ± 0.0003 µM
[4]
  IC50: 189 ± 3.82 µM
[5]
  IC50: 0.02 ± 0.003 µM
[6]
  IC50: 2.15 ± 0.06 µM
[7]
  IC50: 27.1 ± 3.17 µM
[8]
  IC50: 17.3 ± 0.95 µM
[9]
  Hemolysis LC30 (lytic concentration 30%): >10000 µg/mL
[10]
  IC50 at 24 h: 239 ± 4.03 µM
[11]; day 0
  Bodyweights 0 day ± SD: 22.12 ± 1.13 g
[11]; day 7
  Bodyweights 7 days ± SD: 27.33 ± 1.08 g
[12]; 40 mg/kg, day 14
  Weight of tumor: significantly reduced
[12]; day 4
  Test/Control (tumor volume): 42.79%
[12]; day 6
  Test/Control (tumor volume): 49.61%
[12]; day 8
  Test/Control (tumor volume): 50.79%
[12]; day 10
  Test/Control (tumor volume): 60.00%
[12]; day 12
  Test/Control (tumor volume): 61.22%
[12]; 14-day treatment, nude mice
  Effect on mice body weight: did not observe significant growth inhibition of mice body weight
[12]; mouse, in vivo
  Mortality during the treatment: none of the mice died
[13]
  Anticancer / antitumor activity (in words): most potent anticancer activities

Reference: PMC4563558, “Discovery of a series of novel phenylpiperazine derivatives as EGFR TK inhibitors” (Scientific Reports, 2015)
